Where “and” joins values, the source holds several entries; their conditions need not be identical. Equal entries are not always repeated.
Columns and labels:
SfurOBP1 = SfurOBP1 (Sogatella furcifera, UniProt V5T8N5); assay: biochemical; format: binding; details: for Fluorescence competitive binding assay, fluorescence intensity: OBP1, three replicate columns
Method in brief: (§1)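 K1-NPN came from titrating 2.0 µM protein (50 mM Tris-HCl, pH 7.4) with 1-NPN. Odorants at 2-20 µM then competed against 2.0 µM protein plus 2.0 µM 1-NPN for 2 min, with excitation at 337 nm and emission recorded over 390-490 nm. IC50 values were converted to Ki via Ki = IC50/(1 + [1-NPN]/K1-NPN).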

SfurOBP11 = SfurOBP11 (Sogatella furcifera, UniProt V5T6E3); assay: biochemical; format: binding
Method in brief: as §1

SfurOBP2 = SfurOBP2 (Sogatella furcifera, UniProt V5T759); assay: biochemical; format: binding
Method in brief: as §1

SfurOBP3 = SfurOBP3 (Sogatella furcifera, UniProt V5T818); assay: biochemical; format: binding; details: for Fluorescence competitive binding assay, fluorescence intensity: OBP3, three replicate columns
Method in brief: as §1

S. furcifera adults = assay: Y-tube olfactometer behavioral trials; format: in vivo, Sogatella furcifera; details: odorant 50 µL/L vs hexane; adults
Method in brief: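 Single S. furcifera adults (2 days post-emergence, starved 0.5 h) chose between odorant (100 µL of 50 µL/L on filter paper) and hexane control in a glass Y-tube, charcoal-filtered humidified air 300 mL/min per arm, 25 ± 1 °C, 50% RH. Choice scored if insect passed half an arm and stayed >1 min within 10 min; 45 insects per compound, chi-squared test.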

SfurOBP11, sequence (V5T6E3 entry or part of it): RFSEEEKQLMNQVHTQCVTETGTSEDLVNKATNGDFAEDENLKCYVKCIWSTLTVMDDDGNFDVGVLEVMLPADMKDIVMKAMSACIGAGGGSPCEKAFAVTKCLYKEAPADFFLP
SfurOBP2, sequence (V5T759 entry or part of it): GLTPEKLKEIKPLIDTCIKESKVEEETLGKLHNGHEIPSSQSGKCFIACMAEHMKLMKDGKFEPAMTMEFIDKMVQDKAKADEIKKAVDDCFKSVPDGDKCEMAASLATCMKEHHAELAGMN
SfurOBP1, sequence (V5T8N5 entry or part of it): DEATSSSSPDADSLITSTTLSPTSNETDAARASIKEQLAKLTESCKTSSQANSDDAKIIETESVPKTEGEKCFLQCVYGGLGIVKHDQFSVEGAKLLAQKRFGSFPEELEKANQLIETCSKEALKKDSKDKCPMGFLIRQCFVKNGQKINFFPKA
SfurOBP3, sequence (V5T818 entry or part of it): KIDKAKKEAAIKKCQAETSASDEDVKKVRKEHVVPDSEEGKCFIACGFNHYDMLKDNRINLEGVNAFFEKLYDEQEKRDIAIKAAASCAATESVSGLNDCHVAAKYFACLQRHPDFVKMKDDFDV

## CC/C=C\CCO [(Z)-3-hexenol]
SfurOBP1
  IC50: > 20 µM
SfurOBP1; ligand concentration 2 (μM)
  Fluorescence competitive binding assay, fluorescence intensity: 6275 and 5762 and 6097
SfurOBP1; ligand concentration 4 (μM)
  Fluorescence competitive binding assay, fluorescence intensity: 7853 and 8652 and 8403
SfurOBP1; ligand concentration 6 (μM)
  Fluorescence competitive binding assay, fluorescence intensity: 6992 and 6382 and 6355
SfurOBP1; ligand concentration 8 (μM)
  Fluorescence competitive binding assay, fluorescence intensity: 6419 and 7196 and 6808
SfurOBP1; ligand concentration 10 (μM)
  Fluorescence competitive binding assay, fluorescence intensity: 6561 and 6490 and 6439
SfurOBP1; ligand concentration 12 (μM)
  Fluorescence competitive binding assay, fluorescence intensity: 6242 and 6220 and 5811
SfurOBP1; ligand concentration 14 (μM)
  Fluorescence competitive binding assay, fluorescence intensity: 5437 and 6035 and 6831
SfurOBP1; ligand concentration 16 (μM)
  Fluorescence competitive binding assay, fluorescence intensity: 6974 and 6042 and 5510
SfurOBP1; ligand concentration 18 (μM)
  Fluorescence competitive binding assay, fluorescence intensity: 6021 and 6159 and 6506
SfurOBP1; ligand concentration 20 (μM)
  Fluorescence competitive binding assay, fluorescence intensity: 6648 and 5435 and 5963
SfurOBP11
  IC50: 19.7 µM
SfurOBP11; ligand concentration 2, replicate 1
  Fluorescence intensity, fluorescence competitive binding assay, OBP11: 23102
SfurOBP11; ligand concentration 2, replicate 2
  Fluorescence intensity, fluorescence competitive binding assay, OBP11: 23122
SfurOBP11; ligand concentration 2, replicate 3
  Fluorescence intensity, fluorescence competitive binding assay, OBP11: 23081
SfurOBP11; ligand concentration 4, replicate 1
  Fluorescence intensity, fluorescence competitive binding assay, OBP11: 21959
SfurOBP11; ligand concentration 4, replicate 2
  Fluorescence intensity, fluorescence competitive binding assay, OBP11: 22135
SfurOBP11; ligand concentration 4, replicate 3
  Fluorescence intensity, fluorescence competitive binding assay, OBP11: 21783
SfurOBP11; ligand concentration 6, replicate 1
  Fluorescence intensity, fluorescence competitive binding assay, OBP11: 21447
SfurOBP11; ligand concentration 6, replicate 2
  Fluorescence intensity, fluorescence competitive binding assay, OBP11: 20794
SfurOBP11; ligand concentration 6, replicate 3
  Fluorescence intensity, fluorescence competitive binding assay, OBP11: 21118
SfurOBP11; ligand concentration 8, replicate 1
  Fluorescence intensity, fluorescence competitive binding assay, OBP11: 18781
SfurOBP11; ligand concentration 8, replicate 2
  Fluorescence intensity, fluorescence competitive binding assay, OBP11: 21016
SfurOBP11; ligand concentration 8, replicate 3
  Fluorescence intensity, fluorescence competitive binding assay, OBP11: 21554
SfurOBP11; ligand concentration 10, replicate 1
  Fluorescence intensity, fluorescence competitive binding assay, OBP11: 18621
SfurOBP11; ligand concentration 10, replicate 2
  Fluorescence intensity, fluorescence competitive binding assay, OBP11: 21154
SfurOBP11; ligand concentration 10, replicate 3
  Fluorescence intensity, fluorescence competitive binding assay, OBP11: 19973
SfurOBP11; ligand concentration 12, replicate 1
  Fluorescence intensity, fluorescence competitive binding assay, OBP11: 17455
SfurOBP11; ligand concentration 12, replicate 2
  Fluorescence intensity, fluorescence competitive binding assay, OBP11: 20348
SfurOBP11; ligand concentration 12, replicate 3
  Fluorescence intensity, fluorescence competitive binding assay, OBP11: 19925
SfurOBP11; ligand concentration 14, replicate 1
  Fluorescence intensity, fluorescence competitive binding assay, OBP11: 17235
SfurOBP11; ligand concentration 14, replicate 2
  Fluorescence intensity, fluorescence competitive binding assay, OBP11: 18458
SfurOBP11; ligand concentration 14, replicate 3
  Fluorescence intensity, fluorescence competitive binding assay, OBP11: 18680
SfurOBP11; ligand concentration 16, replicate 1
  Fluorescence intensity, fluorescence competitive binding assay, OBP11: 16257
SfurOBP11; ligand concentration 16, replicate 2
  Fluorescence intensity, fluorescence competitive binding assay, OBP11: 15961
SfurOBP11; ligand concentration 16, replicate 3
  Fluorescence intensity, fluorescence competitive binding assay, OBP11: 16778
SfurOBP11; ligand concentration 18, replicate 1
  Fluorescence intensity, fluorescence competitive binding assay, OBP11: 15893
SfurOBP11; ligand concentration 18, replicate 2
  Fluorescence intensity, fluorescence competitive binding assay, OBP11: 16090
SfurOBP11; ligand concentration 18, replicate 3
  Fluorescence intensity, fluorescence competitive binding assay, OBP11: 15799
SfurOBP11; ligand concentration 20, replicate 1
  Fluorescence intensity, fluorescence competitive binding assay, OBP11: 15616
SfurOBP11; ligand concentration 20, replicate 2
  Fluorescence intensity, fluorescence competitive binding assay, OBP11: 15707
SfurOBP11; ligand concentration 20, replicate 3
  Fluorescence intensity, fluorescence competitive binding assay, OBP11: 14975
SfurOBP2
  IC50: > 20 µM
SfurOBP2; ligand concentration 2 (unit not given), replicate column 1 of 3
  Fluorescence competitive binding assay, OBP2 (raw fluorescence reading): 19770
SfurOBP2; ligand concentration 2 (unit not given), replicate column 2 of 3
  Fluorescence competitive binding assay, OBP2 (raw fluorescence reading): 19248
SfurOBP2; ligand concentration 2 (unit not given), replicate column 3 of 3
  Fluorescence competitive binding assay, OBP2 (raw fluorescence reading): 18506
SfurOBP2; ligand concentration 4 (unit not given), replicate column 1 of 3
  Fluorescence competitive binding assay, OBP2 (raw fluorescence reading): 19551
SfurOBP2; ligand concentration 4 (unit not given), replicate column 2 of 3
  Fluorescence competitive binding assay, OBP2 (raw fluorescence reading): 19781
SfurOBP2; ligand concentration 4 (unit not given), replicate column 3 of 3
  Fluorescence competitive binding assay, OBP2 (raw fluorescence reading): 18404
SfurOBP2; ligand concentration 6 (unit not given), replicate column 1 of 3
  Fluorescence competitive binding assay, OBP2 (raw fluorescence reading): 19561
SfurOBP2; ligand concentration 6 (unit not given), replicate column 2 of 3
  Fluorescence competitive binding assay, OBP2 (raw fluorescence reading): 18769
SfurOBP2; ligand concentration 6 (unit not given), replicate column 3 of 3
  Fluorescence competitive binding assay, OBP2 (raw fluorescence reading): 17857
SfurOBP2; ligand concentration 8 (unit not given), replicate column 1 of 3
  Fluorescence competitive binding assay, OBP2 (raw fluorescence reading): 18896
SfurOBP2; ligand concentration 8 (unit not given), replicate column 2 of 3
  Fluorescence competitive binding assay, OBP2 (raw fluorescence reading): 18816
SfurOBP2; ligand concentration 8 (unit not given), replicate column 3 of 3
  Fluorescence competitive binding assay, OBP2 (raw fluorescence reading): 16878
SfurOBP2; ligand concentration 10 (unit not given), replicate column 1 of 3
  Fluorescence competitive binding assay, OBP2 (raw fluorescence reading): 17416
SfurOBP2; ligand concentration 10 (unit not given), replicate column 2 of 3
  Fluorescence competitive binding assay, OBP2 (raw fluorescence reading): 17439
SfurOBP2; ligand concentration 10 (unit not given), replicate column 3 of 3
  Fluorescence competitive binding assay, OBP2 (raw fluorescence reading): 16747
SfurOBP2; ligand concentration 12 (unit not given), replicate column 1 of 3
  Fluorescence competitive binding assay, OBP2 (raw fluorescence reading): 16106
SfurOBP2; ligand concentration 12 (unit not given), replicate column 2 of 3
  Fluorescence competitive binding assay, OBP2 (raw fluorescence reading): 16534
SfurOBP2; ligand concentration 12 (unit not given), replicate column 3 of 3
  Fluorescence competitive binding assay, OBP2 (raw fluorescence reading): 16305
SfurOBP2; ligand concentration 14 (unit not given), replicate column 1 of 3
  Fluorescence competitive binding assay, OBP2 (raw fluorescence reading): 14820
SfurOBP2; ligand concentration 14 (unit not given), replicate column 2 of 3
  Fluorescence competitive binding assay, OBP2 (raw fluorescence reading): 14819
SfurOBP2; ligand concentration 14 (unit not given), replicate column 3 of 3
  Fluorescence competitive binding assay, OBP2 (raw fluorescence reading): 14820
SfurOBP2; ligand concentration 16 (unit not given), replicate column 1 of 3
  Fluorescence competitive binding assay, OBP2 (raw fluorescence reading): 13168
SfurOBP2; ligand concentration 16 (unit not given), replicate column 2 of 3
  Fluorescence competitive binding assay, OBP2 (raw fluorescence reading): 12294
SfurOBP2; ligand concentration 16 (unit not given), replicate column 3 of 3
  Fluorescence competitive binding assay, OBP2 (raw fluorescence reading): 13106
SfurOBP2; ligand concentration 18 (unit not given), replicate column 1 of 3
  Fluorescence competitive binding assay, OBP2 (raw fluorescence reading): 12788
SfurOBP2; ligand concentration 18 (unit not given), replicate column 2 of 3
  Fluorescence competitive binding assay, OBP2 (raw fluorescence reading): 12466
SfurOBP2; ligand concentration 18 (unit not given), replicate column 3 of 3
  Fluorescence competitive binding assay, OBP2 (raw fluorescence reading): 12554
SfurOBP2; ligand concentration 20 (unit not given), replicate column 1 of 3
  Fluorescence competitive binding assay, OBP2 (raw fluorescence reading): 12993
SfurOBP2; ligand concentration 20 (unit not given), replicate column 2 of 3
  Fluorescence competitive binding assay, OBP2 (raw fluorescence reading): 12815
SfurOBP2; ligand concentration 20 (unit not given), replicate column 3 of 3
  Fluorescence competitive binding assay, OBP2 (raw fluorescence reading): 12410
SfurOBP3
  IC50: > 20 µM
SfurOBP3; ligand concentration 2
  Fluorescence competitive binding assay, fluorescence intensity: 48626 and 49734 and 49512
SfurOBP3; ligand concentration 4
  Fluorescence competitive binding assay, fluorescence intensity: 45649 and 45958 and 42870
SfurOBP3; ligand concentration 6
  Fluorescence competitive binding assay, fluorescence intensity: 41915 and 48260 and 45013
SfurOBP3; ligand concentration 8
  Fluorescence competitive binding assay, fluorescence intensity: 45442 and 45656 and 45548
SfurOBP3; ligand concentration 10
  Fluorescence competitive binding assay, fluorescence intensity: 40904 and 43831 and 42892
SfurOBP3; ligand concentration 12
  Fluorescence competitive binding assay, fluorescence intensity: 41218 and 40601 and 40113
SfurOBP3; ligand concentration 14
  Fluorescence competitive binding assay, fluorescence intensity: 34957 and 35609 and 37985
SfurOBP3; ligand concentration 16
  Fluorescence competitive binding assay, fluorescence intensity: 33728 and 34170 and 34618
SfurOBP3; ligand concentration 18
  Fluorescence competitive binding assay, fluorescence intensity: 37828 and 32491 and 33581
SfurOBP3; ligand concentration 20
  Fluorescence competitive binding assay, fluorescence intensity: 33910 and 32414 and 29949
S. furcifera adults
  number of insects choosing hexane arm: 13
  number of insects choosing volatilies arm: 13
  number of insects failed (no choice): 14
